Measured values published in patent publication US20230085307A1, “PYRIDAZINONE COMPOUND AND HERBICIDE” (NISSAN CHEMICAL CORPORATION, priority 2019, published 2023).

Tests used:
lambsquarters = experiment: Test Example 4: herbicidal effect by soil treatment (Table 19, symbol O); format: in vivo, lambsquarters (Chenopodium album); details: amount of applied herbicide 320 g/ha
Method in brief: (§1)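 In this soil treatment, the formulated compound reached the seeds only through the soil: seeds were buried about 1.5 cm deep in sterilized diluvial soil, then the diluted emulsion was sprayed over the surface. After three weeks at 25° C. to 30° C. in a greenhouse, effects were graded on criteria from an earlier test.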

windgrass = experiment: Test Example 5: herbicidal effect by foliage application, plastic box (Table 20, symbol L); format: in vivo, windgrass (Apera spica-venti); details: foliage application, 320 g/ha, evaluated three weeks after application
Method in brief: (§2)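 Plants were sown into sterilized diluvial soil under about 1.5 cm cover and kept in a greenhouse at 25° C. to 30° C. Fourteen days on, foliage received an even spray of the diluted emulsion. Herbicidal or crop effect was judged three weeks afterwards.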

Italian ryegrass [1] = experiment: Test Example 5: herbicidal effect by foliage application, plastic box (Table 20, symbol K); format: in vivo, Italian ryegrass (Lolium multiflorum); details: foliage application, 320 g/ha, evaluated three weeks after application
Method in brief: as §2

redroot pigweed [2] = experiment: Test Example 4: herbicidal effect by soil treatment (Table 19, symbol N); format: in vivo, redroot pigweed (Amaranthus retroflexus); details: amount of applied herbicide 320 g/ha
Method in brief: as §1

velvetleaf [3] = experiment: Test Example 4: herbicidal effect by soil treatment (Table 19, symbol M); format: in vivo, velvetleaf (Abutilon theophrasti); details: amount of applied herbicide 320 g/ha
Method in brief: as §1

green foxtail [4] = experiment: Test Example 4: herbicidal effect by soil treatment (Table 19, symbol G); format: in vivo, green foxtail (Setaria viridis); details: amount of applied herbicide 320 g/ha
Method in brief: as §1

late watergrass = experiment: Test Example 2: herbicidal activity, application during weed generation under submerged conditions (Table 17, symbol A); format: in vivo, late watergrass (Echinochloa oryzicola); details: AAH 320 g/ha; application during weed generation, submerged conditions
Method in brief: (§3)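 Alluvial soil in Wagner pots was flooded to 4 cm depth and sown with the three weeds together; pots were kept in a greenhouse at 25° C. to 30° C. At the one to two leaf stage, an emulsion formulation diluted in water to a set rate went onto the water surface; scored three weeks later.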

barnyard grass [5] = experiment: Test Example 3: herbicidal effect by foliage application, Wagner pot (Table 18, symbol H); format: in vivo, barnyard grass (Echinochloa crus-galli); details: amount of applied herbicide 320 g/ha
Method in brief: (§4)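 Plants were sown in alluvial soil held under 0.1–0.5 cm standing water and grown 14 days in a greenhouse at 25–30 °C. An emulsifiable formulation, water-diluted to the set dose, was then sprayed onto the foliage, and effects were scored three weeks later using previously defined criteria.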

persian speedwell = experiment: Test Example 5: herbicidal effect by foliage application, plastic box (Table 20, symbol R); format: in vivo, Persian speedwell (Veronica persica); details: foliage application, 320 g/ha, evaluated three weeks after application
Method in brief: as §2

velvetleaf [6] = experiment: Test Example 5: herbicidal effect by foliage application, plastic box (Table 20, symbol M); format: in vivo, velvetleaf (Abutilon theophrasti); details: foliage application, 320 g/ha, evaluated three weeks after application
Method in brief: as §2

green foxtail [7] = experiment: Test Example 5: herbicidal effect by foliage application, plastic box (Table 20, symbol G); format: in vivo, green foxtail (Setaria viridis); details: foliage application, 320 g/ha, evaluated three weeks after application
Method in brief: as §2

wild oat [8] = experiment: Test Example 5: herbicidal effect by foliage application, plastic box (Table 20, symbol I); format: in vivo, wild oat (Avena fatua); details: foliage application, 320 g/ha, evaluated three weeks after application
Method in brief: as §2

southern crabgrass = experiment: Test Example 4: herbicidal effect by soil treatment (Table 19, symbol F); format: in vivo, southern crabgrass (Digitaria ciliaris); details: amount of applied herbicide 320 g/ha
Method in brief: as §1

chickweed [9] = experiment: Test Example 5: herbicidal effect by foliage application, plastic box (Table 20, symbol P); format: in vivo, common chickweed (Stellaria media); details: foliage application, 320 g/ha, evaluated three weeks after application
Method in brief: as §2

redroot pigweed [10] = experiment: Test Example 5: herbicidal effect by foliage application, plastic box (Table 20, symbol N); format: in vivo, redroot pigweed (Amaranthus retroflexus); details: foliage application, 320 g/ha, evaluated three weeks after application
Method in brief: as §2

wild oat [11] = experiment: Test Example 4: herbicidal effect by soil treatment (Table 19, symbol I); format: in vivo, wild oat (Avena fatua); details: amount of applied herbicide 320 g/ha
Method in brief: as §1

Italian ryegrass [12] = experiment: Test Example 4: herbicidal effect by soil treatment (Table 19, symbol K); format: in vivo, Italian ryegrass (Lolium multiflorum); details: amount of applied herbicide 320 g/ha
Method in brief: as §1

chickweed [13] = experiment: Test Example 4: herbicidal effect by soil treatment (Table 19, symbol P); format: in vivo, common chickweed (Stellaria media); details: amount of applied herbicide 320 g/ha
Method in brief: as §1

blackgrass = experiment: Test Example 5: herbicidal effect by foliage application, plastic box (Table 20, symbol J); format: in vivo, blackgrass (Alopecurus myosuroides); details: foliage application, 320 g/ha, evaluated three weeks after application
Method in brief: as §2

barnyard grass [14] = experiment: Test Example 4: herbicidal effect by soil treatment (Table 19, symbol H); format: in vivo, barnyard grass (Echinochloa crus-galli); details: amount of applied herbicide 320 g/ha
Method in brief: as §1

rice flat sedge = experiment: Test Example 3: herbicidal effect by foliage application, Wagner pot (Table 18, symbol E); format: in vivo, rice flat sedge (Cyperus iria); details: amount of applied herbicide 320 g/ha
Method in brief: as §4

Japanese bulrush = experiment: Test Example 2: herbicidal activity, application during weed generation under submerged conditions (Table 17, symbol B); format: in vivo, Japanese bulrush (Schoenoplectus juncoides); details: AAH 320 g/ha; application during weed generation, submerged conditions
Method in brief: as §3

SMILES | O: lambsquarters, herbicidal effect rating (lambsquarters) | herbicidal effect on L: windgrass (criteria 0-5) (windgrass) | herbicidal effect on K: Italian ryegrass (criteria 0-5) (Italian ryegrass [1]) | N: redroot pigweed, herbicidal effect rating (redroot pigweed [2]) | M: velvetleaf, herbicidal effect rating (velvetleaf [3]) | G: green foxtail, herbicidal effect rating (green foxtail [4]) | herbicidal effect rating, A: late watergrass (late watergrass) | herbicidal effect on H: barnyard grass (barnyard grass [5]) | herbicidal effect on R: persian speedwell (criteria 0-5) (persian speedwell) | herbicidal effect on M: velvetleaf (criteria 0-5) (velvetleaf [6]) | herbicidal effect on G: green foxtail (criteria 0-5) (green foxtail [7]) | herbicidal effect on I: wild oat (criteria 0-5) (wild oat [8]) | F: southern crabgrass, herbicidal effect rating (southern crabgrass) | herbicidal effect on P: chickweed (criteria 0-5) (chickweed [9]) | herbicidal effect on N: redroot pigweed (criteria 0-5) (redroot pigweed [10]) | I: wild oat, herbicidal effect rating (wild oat [11]) | K: Italian ryegrass, herbicidal effect rating (Italian ryegrass [12]) | herbicidal effect on J: blackgrass (criteria 0-5) (blackgrass) | herbicidal effect on E: rice flat sedge (rice flat sedge) | herbicidal effect rating, B: Japanese bulrush (Japanese bulrush) | further results
Cc1nn(C)c(=O)c(-c2c(-c3ccc(OC4CC4)cc3)sc3ccc(F)cc23)c1O [2-217] | 4 (Herbicidal rate of 70% or more and less than 90%) | 5 (Herbicidal rate of 90% or more (almost completely withered)) | 5 (Herbicidal rate of 90% or more (almost completely withered)) | 4 (Herbicidal rate of 70% or more and less than 90%) | 1 (Herbicidal rate of 5% or more and less than 20%) | 1 (Herbicidal rate of 5% or more and less than 20%) | 3 (Herbicidal rate of 40% or more and less than 70%) | 5 (Herbicidal rate of 90% or more (almost completely withered)) | 5 (Herbicidal rate of 90% or more (almost completely withered)) | 5 (Herbicidal rate of 90% or more (almost completely withered)) | 4 (Herbicidal rate of 70% or more and less than 90%) | 4 (Herbicidal rate of 70% or more and less than 90%) | 4 (Herbicidal rate of 70% or more and less than 90%) | 5 (Herbicidal rate of 90% or more (almost completely withered)) | 5 (Herbicidal rate of 90% or more (almost completely withered)) | 0 (Herbicidal rate of 5% or less (almost no effect)) | 4 (Herbicidal rate of 70% or more and less than 90%) | 1 (Herbicidal rate of 5% or more and less than 20%) | 5 (Herbicidal rate of 90% or more (almost completely withered)) | 3 (Herbicidal rate of 40% or more and less than 70%) | P: chickweed, herbicidal effect rating (chickweed [13]): 4 (Herbicidal rate of 70% or more and less than 90%); H: barnyard grass, herbicidal effect rating (barnyard grass [14]): 5 (Herbicidal rate of 90% or more (almost completely withered))
CCCC(=O)Oc1c(C)nn(C)c(=O)c1-c1c(-c2ccc(OC3CC3)cc2)sc2ccc(F)cc12 [2-218] | 4 (Herbicidal rate of 70% or more and less than 90%) | 5 (Herbicidal rate of 90% or more (almost completely withered)) | 4 (Herbicidal rate of 70% or more and less than 90%) | 1 (Herbicidal rate of 5% or more and less than 20%) | 0 (Herbicidal rate of 5% or less (almost no effect)) | 0 (Herbicidal rate of 5% or less (almost no effect)) | 1 (Herbicidal rate of 5% or more and less than 20%) | 5 (Herbicidal rate of 90% or more (almost completely withered)) | 5 (Herbicidal rate of 90% or more (almost completely withered)) | 5 (Herbicidal rate of 90% or more (almost completely withered)) | 2 (Herbicidal rate of 20% or more and less than 40%) | 3 (Herbicidal rate of 40% or more and less than 70%) | 0 (Herbicidal rate of 5% or less (almost no effect)) | 5 (Herbicidal rate of 90% or more (almost completely withered)) | 2 (Herbicidal rate of 20% or more and less than 40%) | 0 (Herbicidal rate of 5% or less (almost no effect)) | 4 (Herbicidal rate of 70% or more and less than 90%) | 1 (Herbicidal rate of 5% or more and less than 20%) | 5 (Herbicidal rate of 90% or more (almost completely withered)) | 3 (Herbicidal rate of 40% or more and less than 70%) | P: chickweed, herbicidal effect rating (chickweed [13]): 1 (Herbicidal rate of 5% or more and less than 20%); H: barnyard grass, herbicidal effect rating (barnyard grass [14]): 0 (Herbicidal rate of 5% or less (almost no effect))
CCCC(=O)Oc1c(C)nn(C)c(=O)c1-c1c(-c2cccc(OCC(C)C)c2)sc2ccc(F)cc12 [2-222] | – | 4 (Herbicidal rate of 70% or more and less than 90%) | 4 (Herbicidal rate of 70% or more and less than 90%) | – | – | – | 2 (Herbicidal rate of 20% or more and less than 40%) | 5 (Herbicidal rate of 90% or more (almost completely withered)) | 5 (Herbicidal rate of 90% or more (almost completely withered)) | 5 (Herbicidal rate of 90% or more (almost completely withered)) | 5 (Herbicidal rate of 90% or more (almost completely withered)) | 3 (Herbicidal rate of 40% or more and less than 70%) | – | 5 (Herbicidal rate of 90% or more (almost completely withered)) | 5 (Herbicidal rate of 90% or more (almost completely withered)) | – | – | 4 (Herbicidal rate of 70% or more and less than 90%) | 4 (Herbicidal rate of 70% or more and less than 90%) | 3 (Herbicidal rate of 40% or more and less than 70%) | herbicidal effect on O: lambsquarters (lambsquarters): 4 (Herbicidal rate of 70% or more and less than 90%); herbicidal effect on N: redroot pigweed (redroot pigweed [2]): 5 (Herbicidal rate of 90% or more (almost completely withered)); herbicidal effect on M: velvetleaf (velvetleaf [3]): 3 (Herbicidal rate of 40% or more and less than 70%); herbicidal effect on G: green foxtail (green foxtail [4]): 2 (Herbicidal rate of 20% or more and less than 40%); herbicidal effect on F: southern crabgrass (southern crabgrass): 1 (Herbicidal rate of 5% or more and less than 20%); herbicidal effect on I: wild oat (wild oat [11]): 0 (Herbicidal rate of 5% or less (almost no effect)); herbicidal effect on K: Italian ryegrass (Italian ryegrass [12]): 2 (Herbicidal rate of 20% or more and less than 40%); herbicidal effect on P: chickweed (chickweed [13]): 2 (Herbicidal rate of 20% or more and less than 40%); herbicidal effect on H: barnyard grass (barnyard grass [14]): 5 (Herbicidal rate of 90% or more (almost completely withered))
